For three compounds, IC50 and Nav1.4/Nav1.7 results are on record in US10344060B2 (priority 2013, dated 2019).

The term IC50 denotes the point on the concentration scale where inhibition reaches its midpoint.

What all share (assay): cell-based
One assay deals with hNav1.7 (Homo sapiens, UniProt Q15858). Conditions: read-out: IC50 (μM) Nav1.7.
In another assay the target is hNav1.5 (Homo sapiens, UniProt Q14524). Conditions: IonWorks Quattro; Table 6; read-out: IC50 (μM) Nav1.5.
The target in the next assay is hNav1.4 (Homo sapiens, UniProt P35499). Type of assay: cell-based. Conditions: Table 6; for IC50: IonWorks Quattro, read-out: IC50 (μM) Nav1.4; for Nav1.4/Nav1.7: ratio of IonWorks Quattro IC50 values. For orientation: Patch clamp records ionic current or voltage across a cell membrane.
A further assay addresses hNav1.3 (Homo sapiens, UniProt Q9NY46). Conditions: IonWorks Quattro; Table 6; read-out: IC50 (μM) Nav1.3.

Sequence of hNav1.5 (Q14524 whole entry): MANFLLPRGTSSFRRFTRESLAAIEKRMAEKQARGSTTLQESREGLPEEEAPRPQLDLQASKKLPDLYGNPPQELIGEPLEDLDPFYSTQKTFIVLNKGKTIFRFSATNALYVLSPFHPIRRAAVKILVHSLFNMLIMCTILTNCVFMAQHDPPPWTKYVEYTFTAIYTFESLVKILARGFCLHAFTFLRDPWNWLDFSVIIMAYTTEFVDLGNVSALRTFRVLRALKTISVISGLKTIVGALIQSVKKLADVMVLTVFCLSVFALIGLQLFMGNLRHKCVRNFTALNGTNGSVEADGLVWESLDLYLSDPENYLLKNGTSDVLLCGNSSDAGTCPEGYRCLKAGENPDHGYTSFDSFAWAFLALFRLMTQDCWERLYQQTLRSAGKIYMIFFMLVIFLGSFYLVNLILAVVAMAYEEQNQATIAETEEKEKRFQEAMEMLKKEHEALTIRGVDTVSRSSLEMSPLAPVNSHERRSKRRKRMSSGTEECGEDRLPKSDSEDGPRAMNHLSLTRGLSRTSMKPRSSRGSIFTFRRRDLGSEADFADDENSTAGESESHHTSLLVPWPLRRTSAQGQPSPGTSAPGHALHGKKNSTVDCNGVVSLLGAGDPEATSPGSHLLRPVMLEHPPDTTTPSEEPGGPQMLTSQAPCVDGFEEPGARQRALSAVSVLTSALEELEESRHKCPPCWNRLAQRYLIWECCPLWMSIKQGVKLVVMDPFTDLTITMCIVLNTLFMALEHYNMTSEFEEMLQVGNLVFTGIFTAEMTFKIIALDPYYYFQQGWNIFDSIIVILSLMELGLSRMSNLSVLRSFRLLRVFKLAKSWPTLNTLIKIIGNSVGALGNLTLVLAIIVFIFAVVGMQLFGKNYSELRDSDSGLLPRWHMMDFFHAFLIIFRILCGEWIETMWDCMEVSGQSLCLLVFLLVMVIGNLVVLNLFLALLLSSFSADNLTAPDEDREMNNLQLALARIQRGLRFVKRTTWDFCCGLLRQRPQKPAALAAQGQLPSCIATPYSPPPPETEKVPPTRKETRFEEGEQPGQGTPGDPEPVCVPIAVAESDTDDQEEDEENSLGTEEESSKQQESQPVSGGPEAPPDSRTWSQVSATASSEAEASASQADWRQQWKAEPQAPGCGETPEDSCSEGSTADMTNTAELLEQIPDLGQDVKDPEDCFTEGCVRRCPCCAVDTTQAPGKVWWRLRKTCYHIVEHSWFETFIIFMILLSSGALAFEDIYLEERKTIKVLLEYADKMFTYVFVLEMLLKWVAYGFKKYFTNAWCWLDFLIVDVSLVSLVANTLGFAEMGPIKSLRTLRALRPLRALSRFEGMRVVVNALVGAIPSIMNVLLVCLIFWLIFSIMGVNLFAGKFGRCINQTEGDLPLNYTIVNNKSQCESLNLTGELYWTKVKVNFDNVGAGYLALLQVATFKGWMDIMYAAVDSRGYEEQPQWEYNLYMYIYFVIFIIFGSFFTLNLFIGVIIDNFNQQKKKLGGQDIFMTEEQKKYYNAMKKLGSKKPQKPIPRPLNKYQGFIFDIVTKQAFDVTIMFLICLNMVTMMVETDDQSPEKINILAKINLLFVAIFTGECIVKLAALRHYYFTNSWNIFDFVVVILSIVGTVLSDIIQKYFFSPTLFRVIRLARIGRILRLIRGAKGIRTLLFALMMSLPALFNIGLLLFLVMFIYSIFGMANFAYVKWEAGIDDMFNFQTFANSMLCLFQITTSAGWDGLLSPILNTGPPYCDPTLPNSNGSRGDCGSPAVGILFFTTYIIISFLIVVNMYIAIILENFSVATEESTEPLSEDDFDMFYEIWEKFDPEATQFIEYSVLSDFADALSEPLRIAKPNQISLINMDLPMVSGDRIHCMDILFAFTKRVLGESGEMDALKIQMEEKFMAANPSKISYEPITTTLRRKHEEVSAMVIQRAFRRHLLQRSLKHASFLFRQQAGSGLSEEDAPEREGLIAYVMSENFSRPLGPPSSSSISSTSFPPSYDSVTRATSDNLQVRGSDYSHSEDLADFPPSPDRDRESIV
Sequence of hNav1.4 (P35499 whole entry): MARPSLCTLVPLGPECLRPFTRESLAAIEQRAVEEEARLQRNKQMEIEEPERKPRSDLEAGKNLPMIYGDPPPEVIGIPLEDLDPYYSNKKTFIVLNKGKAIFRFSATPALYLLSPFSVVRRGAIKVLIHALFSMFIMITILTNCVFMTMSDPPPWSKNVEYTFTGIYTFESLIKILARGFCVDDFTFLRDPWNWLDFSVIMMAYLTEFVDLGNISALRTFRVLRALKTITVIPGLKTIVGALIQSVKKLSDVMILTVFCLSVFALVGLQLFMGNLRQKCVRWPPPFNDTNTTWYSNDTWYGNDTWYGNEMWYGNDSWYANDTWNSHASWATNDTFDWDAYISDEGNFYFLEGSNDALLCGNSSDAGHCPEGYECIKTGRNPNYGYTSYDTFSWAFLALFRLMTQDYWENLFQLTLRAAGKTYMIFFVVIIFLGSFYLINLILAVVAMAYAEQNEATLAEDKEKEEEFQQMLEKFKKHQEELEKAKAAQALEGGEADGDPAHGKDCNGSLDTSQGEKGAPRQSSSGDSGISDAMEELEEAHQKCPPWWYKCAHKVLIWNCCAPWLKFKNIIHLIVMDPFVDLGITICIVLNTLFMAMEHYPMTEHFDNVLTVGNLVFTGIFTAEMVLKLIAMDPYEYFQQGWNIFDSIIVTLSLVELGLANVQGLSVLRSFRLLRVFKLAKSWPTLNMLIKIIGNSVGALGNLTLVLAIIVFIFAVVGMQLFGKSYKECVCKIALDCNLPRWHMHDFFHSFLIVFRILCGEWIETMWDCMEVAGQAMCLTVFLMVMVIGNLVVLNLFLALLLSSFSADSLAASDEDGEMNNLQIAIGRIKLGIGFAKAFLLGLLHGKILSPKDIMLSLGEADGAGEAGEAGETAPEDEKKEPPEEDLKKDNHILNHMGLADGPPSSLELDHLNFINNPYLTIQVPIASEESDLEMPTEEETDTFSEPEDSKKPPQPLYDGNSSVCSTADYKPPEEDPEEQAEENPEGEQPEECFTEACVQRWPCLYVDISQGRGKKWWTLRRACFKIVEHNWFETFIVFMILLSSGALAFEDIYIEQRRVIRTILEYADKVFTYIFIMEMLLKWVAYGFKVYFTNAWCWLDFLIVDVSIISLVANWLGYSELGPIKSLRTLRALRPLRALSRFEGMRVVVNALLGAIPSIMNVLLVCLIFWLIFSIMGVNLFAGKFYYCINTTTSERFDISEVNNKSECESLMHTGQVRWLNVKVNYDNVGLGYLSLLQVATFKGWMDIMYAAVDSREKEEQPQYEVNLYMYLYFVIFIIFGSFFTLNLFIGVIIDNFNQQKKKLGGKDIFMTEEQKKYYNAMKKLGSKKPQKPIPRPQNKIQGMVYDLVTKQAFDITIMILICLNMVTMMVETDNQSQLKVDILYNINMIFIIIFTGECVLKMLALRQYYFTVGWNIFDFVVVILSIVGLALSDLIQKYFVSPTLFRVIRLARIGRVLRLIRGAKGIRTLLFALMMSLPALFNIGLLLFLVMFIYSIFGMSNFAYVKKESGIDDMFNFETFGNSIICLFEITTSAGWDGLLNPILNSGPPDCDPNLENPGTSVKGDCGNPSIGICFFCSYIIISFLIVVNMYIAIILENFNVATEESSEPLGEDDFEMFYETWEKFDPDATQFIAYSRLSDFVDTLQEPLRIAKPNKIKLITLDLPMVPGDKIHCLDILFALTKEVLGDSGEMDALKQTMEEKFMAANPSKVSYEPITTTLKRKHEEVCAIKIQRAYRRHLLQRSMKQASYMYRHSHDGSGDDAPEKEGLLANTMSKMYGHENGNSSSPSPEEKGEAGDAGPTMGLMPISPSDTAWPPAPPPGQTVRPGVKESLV

For the compound `CC[C@H](C)[C@H](NC(=O)[C@@H](NC(=O)[C@H](CCCCN)NC(=O)[C@H](CCCNC(=N)N)NC(=O)[C@@H]1CSSC[C@@H]2NC(=O)[C@H](C)NC(=O)[C@H](CCCNC(=N)N)NC(=O)[C@H](CCCCN)NC(=O)[C@H](CO)NC(=O)[C@H](CC(=O)O)NC(=O)[C@@H]3CSSC[C@H](NC(=O)[C@H](CCCNC(=N)N)NC(=O)[C@H](CC(C)C)NC(=O)CNC(=O)[C@H](CCC(=O)O)NC(=O)[C@H](CSSC[C@H](NC(=O)[C@@H](N)Cc4ccc(O)cc4)C(=O)N[C@@H](CCC(N)=O)C(=O)N[C@@H](CCCCN)C(=O)N[C@@H](Cc4c[nH]c5ccccc45)C(=O)N[C@@H](CCSC)C(=O)N[C@@H](Cc4c[nH]c5ccccc45)C(=O)N[C@@H]([C@@H](C)O)C(=O)N3)NC2=O)C(=O)N[C@@H](CCCCN)C(=O)N[C@@H](CC(C)C)C(=O)N[C@@H](Cc2cccc3ccccc23)C(=O)N1)[C@@H](C)CC)C(N)=O` [compound 43], the IC50 at hNav1.7 was 0.075 µM; at hNav1.5, over 5 µM; on hNav1.4 it was 0.33 µM; on hNav1.3, 0.46 µM. In addition, at hNav1.4, the Nav1.4/Nav1.7 is listed as 4.

With `CC[C@H](C)[C@H](NC(=O)[C@H](Cc1cccc2ccccc12)NC(=O)[C@H](CCCCN)NC(=O)[C@H](CCCNC(=N)N)NC(=O)[C@@H]1CSSC[C@@H]2NC(=O)[C@H](C)NC(=O)[C@H](CCCNC(=N)N)NC(=O)[C@H](CCCCN)NC(=O)[C@H](CO)NC(=O)[C@H](CC(=O)O)NC(=O)[C@@H]3CSSC[C@H](NC(=O)[C@H](CCCNC(=N)N)NC(=O)[C@H](CC(C)C)NC(=O)CNC(=O)[C@H](CCC(=O)O)NC(=O)[C@H](CSSC[C@H](NC(=O)[C@@H](N)Cc4ccc(O)cc4)C(=O)N[C@@H](CCC(N)=O)C(=O)N[C@@H](CCCCN)C(=O)N[C@@H](Cc4c[nH]c5ccccc45)C(=O)N[C@@H](CCSC)C(=O)N[C@@H](Cc4c[nH]c5ccccc45)C(=O)N[C@@H]([C@@H](C)O)C(=O)N3)NC2=O)C(=O)N[C@@H](CCCCN)C(=O)N[C@@H](CC(C)C)C(=O)N[C@@H](Cc2c[nH]c3ccccc23)C(=O)N1)C(N)=O` [compound 46], the IC50 was 0.006 µM at hNav1.7, 3.6 µM at hNav1.5, 0.1 µM on hNav1.4 and 0.06 µM on hNav1.3. Moreover, the Nav1.4/Nav1.7 at hNav1.4 came to 17.

As for `CC[C@H](C)[C@H](NC(=O)[C@@H](NC(=O)[C@H](CCCCN)NC(=O)[C@H](CCCNC(=N)N)NC(=O)[C@@H]1CSSC[C@@H]2NC(=O)[C@H](C)NC(=O)[C@H](CCCNC(=N)N)NC(=O)[C@H](CCCCN)NC(=O)[C@H](CO)NC(=O)[C@H](CC(=O)O)NC(=O)[C@@H]3CSSC[C@H](NC(=O)[C@H](CCCNC(=N)N)NC(=O)[C@H](CC(C)C)NC(=O)CNC(=O)[C@H](CCC(=O)O)NC(=O)[C@H](CSSC[C@H](NC(=O)[C@@H](N)CCCCN)C(=O)N[C@@H](CCC(N)=O)C(=O)N[C@@H](CCCCN)C(=O)N[C@@H](Cc4c[nH]c5ccccc45)C(=O)N[C@@H](CCSC)C(=O)N[C@@H](Cc4c[nH]c5ccccc45)C(=O)N[C@@H]([C@@H](C)O)C(=O)N3)NC2=O)C(=O)N[C@@H](CCCCN)C(=O)N[C@@H](CC(C)C)C(=O)N[C@@H](Cc2c[nH]c3ccccc23)C(=O)N1)[C@@H](C)CC)C(N)=O` [compound 71], the IC50 on hNav1.7 was determined as 0.005 µM; at hNav1.5 it was 2.3 µM; at hNav1.4, 0.06 µM; at hNav1.3, 0.05 µM. Moreover, at hNav1.4, the Nav1.4/Nav1.7 turned out to be 12.
